Marks after values point to notes of the source that are not given here.
Tests used:
androgen receptor = androgen receptor (Homo sapiens, UniProt P10275); test: interaction with androgen receptor
[1] = system: DBA/1 mice, passive collagen-induced arthritis; test: passive collagen-induced arthritis (anti-type II collagen antibodies); type: in vivo, mouse; details: 40 mg/kg/day oral gavage for 14 days
Excerpt: The capacity of formula 1 compounds to affect the course of arthritis in a passive collagen induced arthritis model of arthritis was examined essentially as previously described (E. Simelyte et al., Arthritis & Rheumatism, 52(6):1876-1884, 2005; Z. Han et al. Arthritis & Rheumatism 46(3):818-823 2002; H. Miyahara et. Clin. Immunol. Immunopathol., 69(1):69-76 1993). In this protocol, passive collagen-induced arthritis was induced in DBA/1 mice by administering anti-type II collagen antibodies, which induced an immune response against joint tissue in the animals. […] The severity of arthritis was assessed using a semiquantitative clinical scoring system. Groups of 8 animals per group were treated with 17α-ethynylandrost-5-ene-3β,7β,17β-triol at 40 mg/kg/day for 14 days or vehicle for 14 days by oral gavage. The vehicle was 30% cyclodextrin-sulfobutylether in water and the drug solution was vehicle with drug at 20 mg/mL.
The animals were examined by measuring ankle thickness and arthritis score (4-point/paw) with a higher score indicating a more severe arthritis. The experiment was terminated after about 14 days, and histology and gene expression measurements were performed. […] A semi-quantitative scoring system was used to access synovial inflammation, extraarticular inflammation, erosion and proteogylcan loss. […]

[2] = metabolic stability in liver microsomes: rat; details: 30 min
Protocol: Metabolic stability. The metabolic stability of selected compounds was examined in vitro using microsomes obtained from liver tissue according to the following protocol.
The protocol was performed as follows. (1) Prepared 0.5 mM compound in acetonitrile/water 35:65. […] (2) Set up samples as follows. […] Tubes for each compound was follows: 1-0′ 2-0′ 3-0′ 4-0′* 5-0′* 6-5 μM 7-1 μM 8-30′ 9-30′ 10-30′ where * designated denatured microsome negative control reaction tubes. For additional compounds numbering was started at 11, 21, 31, etc. (3) Added 315 μL PBS (pH 7.3-7.5) to each tube. Added 10 μL of the appropriate test article solution to each tube. (4) The internal standard/acetonitrile solution. (5) The NADPH regenerating system (NRS) was 125 μL per tube. To PBS added 1.7 mg/ml NADP, 7.8 mg/ml glucose-6-phosphate, 6 units/mL glucose-6-phosphate dehydrogenase. Fresh NRS for each experiment was kept on ice until use. (6) Each reaction used 125 μL of NRS in each tube. (7) Removed liver microsome preparation from −80° C. freezer and thawed in a room temperature water bath. The microsomal preparation was at a concentration of 20 mg/ml. […] (13) The methyl-t-butyl ether was transferred from each tube to a fresh tube and the solvent was evaporated ether under nitrogen and the precipitate was then resuspended in 100 μL acetonitrile/water 35:65 and analyzed by LCMS.

androgen receptor, sequence (P10275 whole entry, species assumed): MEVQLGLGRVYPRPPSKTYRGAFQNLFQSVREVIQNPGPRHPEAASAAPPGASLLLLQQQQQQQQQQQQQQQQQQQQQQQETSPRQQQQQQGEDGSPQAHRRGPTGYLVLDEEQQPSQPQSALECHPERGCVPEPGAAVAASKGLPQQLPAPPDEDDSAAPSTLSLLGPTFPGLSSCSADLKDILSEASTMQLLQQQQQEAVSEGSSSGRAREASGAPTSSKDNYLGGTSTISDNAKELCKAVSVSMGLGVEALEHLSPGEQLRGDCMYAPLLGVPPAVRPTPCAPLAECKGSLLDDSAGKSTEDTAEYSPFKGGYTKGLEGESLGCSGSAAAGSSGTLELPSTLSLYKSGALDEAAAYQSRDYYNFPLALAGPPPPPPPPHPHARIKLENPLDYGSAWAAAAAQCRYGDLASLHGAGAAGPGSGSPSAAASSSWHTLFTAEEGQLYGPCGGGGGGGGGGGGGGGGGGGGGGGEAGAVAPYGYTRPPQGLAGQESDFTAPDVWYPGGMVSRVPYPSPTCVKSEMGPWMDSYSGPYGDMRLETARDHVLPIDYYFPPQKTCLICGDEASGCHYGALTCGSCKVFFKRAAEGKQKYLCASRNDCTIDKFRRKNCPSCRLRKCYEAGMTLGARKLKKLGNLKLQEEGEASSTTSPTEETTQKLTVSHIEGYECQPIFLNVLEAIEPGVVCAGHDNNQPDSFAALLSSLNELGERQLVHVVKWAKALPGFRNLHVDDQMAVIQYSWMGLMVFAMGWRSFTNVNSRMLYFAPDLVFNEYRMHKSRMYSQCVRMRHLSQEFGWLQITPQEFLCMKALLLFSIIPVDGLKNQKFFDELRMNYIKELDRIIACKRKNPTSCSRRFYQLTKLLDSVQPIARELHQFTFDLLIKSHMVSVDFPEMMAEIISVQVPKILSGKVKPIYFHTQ

C#C[C@]1(O)CC[C@H]2[C@@H]3[C@@H](O)C=C4C[C@@H](O)CC[C@]4(C)[C@H]3CC[C@@]21C [17α-ethynylandrost-5-ene-3β,7β,17β-triol]
interaction with androgen receptor (androgen receptor): do not interact
maximum clinical score ([1]; at day 7): 5.1
clinical score at day 14 ([1]; end of the protocol): 4.1
parent remaining, rat microsome instead of mouse preparation [2]: 86%* (30 min)
